Measured values published in ChEMBL document CHEMBL1201862, “PubChem BioAssay data set” (2004).
Active and inactive are the calls of the source.

Columns and labels:
[1] = molecular target: G-protein coupled receptor 55 (Homo sapiens, UniProt Q9Y2T6); assay: GPR55 antagonists blocking LPI-driven arrestin recruitment, primary screen, imaging, U2OS, beta-arrestin-GFP, LPI agonist (AID 2013); assay type: functional;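 note: antagonist potency measured as reduced agonist-driven arrestin aggregation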
[2] = HEK293T cell cytotoxicity, dose response, cytotoxicity control for HIV Vif inhibitor project, cherry-picks (AID 652208); assay type: functional, cell-based
Beta-galactosidase = Beta-galactosidase (Escherichia coli, UniProt Q8VNN2); assay: Dose response counterscreen for EBI2 assay utilizing the enzyme, b-galactosidase.; assay type: functional
[3] = ARNT/TACC3 interaction disruptors, potency, confirmation, biochemical, AlphaScreen, cherry-picked samples (AID 651703); assay type: functional, Homo sapiens;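 note: His-tagged ARNT PAS-B domain paired with GST-TACC3 E629A dimer coactivator fragment; potency of inhibitors that break up the complex and lower AlphaScreen signal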
Caspase-6 = molecular target: T1, Caspase-6 (Homo sapiens, UniProt P55212); assay: human caspase-6 inhibitors, dose response, biochemical, VEID-R110 fluorescence, cherry-pick (AID 720632)
T1 sequence (P55212 whole entry): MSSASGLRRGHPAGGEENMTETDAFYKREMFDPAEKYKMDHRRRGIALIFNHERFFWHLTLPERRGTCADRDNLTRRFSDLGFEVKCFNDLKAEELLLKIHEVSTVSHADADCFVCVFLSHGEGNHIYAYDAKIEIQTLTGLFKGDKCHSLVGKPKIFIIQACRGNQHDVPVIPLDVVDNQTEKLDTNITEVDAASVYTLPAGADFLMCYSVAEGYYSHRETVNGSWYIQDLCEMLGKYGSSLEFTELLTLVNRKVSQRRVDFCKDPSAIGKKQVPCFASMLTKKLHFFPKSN

[4] = HepG2 cell cytotoxicity, dose response, cytotoxicity control for Shn3 inhibitor project, CellTiter-Glo, cherry-picked (AID 624134); assay type: functional, cell-based
[5] = molecular target: COUP transcription factor 2 (Homo sapiens, UniProt P24468); assay: Luminescence-based cell-based high throughput dose response assay to identify inhibitors of COUP-TFII (NR2F2).; assay type: functional;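 note: HEK293 cells transiently cotransfected with COUP-TFII expression vector and reporter; luciferase reporter luminescence driven by COUP-TFII from the pX2-168 reporter plasmid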
INS1 = assay: beta cell apoptosis inhibitors, cytokine rescue, dose response, luminescence, retest (AID 449756); assay type: functional, cell-based; details: Rattus norvegicus;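 note: cell death triggered by IL-1 beta plus TNF-alpha plus IFN-gamma mixture; protective hits raise ATP signal compared with cytokine alone wells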
Protein Wnt-3a = Protein Wnt-3a (Mus musculus, UniProt P27467); assay: Wnt3a-driven reporter signaling inhibition, dose response, selectivity assay for Gli-SUFU antagonist project, Wnt-LIGHT cells, luminescence (AID 651570); assay type: functional; details: read-out: IC50_Mean;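 note: Wnt-LIGHT reporter cells stimulated with conditioned medium from Wnt3a-producing cells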
[6] = Shn3 3'UTR reporter inhibitors, dose response, cell-based, Clone20 osteoblasts, firefly luciferase, cherry-picked (AID 624132); assay type: functional;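 note: firefly luciferase luminescence from reporter carrying the Shn3 3'UTR in osteoblasts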
[7] = control 3'UTR Renilla luciferase suppression, dose response, counter-screen for Shn3 inhibitor project, cell-based, Clone20-Shn3RL, cherry-picked (AID 624133); assay type: functional
[8] = molecular target: T2, Zinc finger protein mex-5 (Caenorhabditis elegans, UniProt Q9XUB2); assay: MEX-5/TCR-2 RNA interaction inhibitors, dose response, biochemical, C. elegans, fluorescence polarization (AID 1960)
T2 sequence (Q9XUB2 whole entry): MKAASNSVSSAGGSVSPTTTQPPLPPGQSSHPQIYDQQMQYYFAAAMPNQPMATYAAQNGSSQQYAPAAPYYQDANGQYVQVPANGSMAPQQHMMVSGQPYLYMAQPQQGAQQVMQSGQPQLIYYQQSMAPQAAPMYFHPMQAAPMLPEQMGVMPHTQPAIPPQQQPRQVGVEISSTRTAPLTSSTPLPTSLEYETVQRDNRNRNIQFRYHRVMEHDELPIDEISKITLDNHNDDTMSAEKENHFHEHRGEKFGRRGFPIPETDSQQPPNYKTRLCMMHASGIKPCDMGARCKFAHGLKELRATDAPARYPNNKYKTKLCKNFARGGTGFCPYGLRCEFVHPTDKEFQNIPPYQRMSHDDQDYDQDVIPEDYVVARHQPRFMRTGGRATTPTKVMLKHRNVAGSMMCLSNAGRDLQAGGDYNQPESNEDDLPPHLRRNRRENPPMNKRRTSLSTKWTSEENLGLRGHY

[9] = molecular target: T3, RNA-binding protein pos-1 (Caenorhabditis elegans, UniProt G5EF15); assay: inhibitors of POS-1/mex-3 RNA binding, dose response, biochemical, fluorescence polarization (AID 1964);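 note: purified POS-1 fused to maltose binding protein made in E. coli; potency of compounds blocking POS-1 binding to fluorescent RNA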
T3 sequence (G5EF15 whole entry): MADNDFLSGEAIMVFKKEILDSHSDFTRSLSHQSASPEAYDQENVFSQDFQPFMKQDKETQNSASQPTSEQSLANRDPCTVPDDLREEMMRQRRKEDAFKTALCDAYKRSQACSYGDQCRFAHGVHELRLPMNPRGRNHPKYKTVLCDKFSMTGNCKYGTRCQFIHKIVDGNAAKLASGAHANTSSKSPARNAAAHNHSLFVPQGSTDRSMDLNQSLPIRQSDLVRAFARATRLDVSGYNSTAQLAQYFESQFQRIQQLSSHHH

[10] = molecular target: T4, Sentrin-specific protease 1 (Homo sapiens, UniProt Q9P0U3); assay: potency of human SENP1 inhibitors, dose response, biochemical, kinetic FRET (AID 651697); assay type: functional; details: read-out: IC50_Mean
[11] = molecular target: T4, Sentrin-specific protease 1; assay: Dose response confirmation of small molecule inhibitors of the catalytic domain of the SUMO protease, SENP1 in a FRET assay.; assay type: functional; details: read-out: IC50_Mean
[12] = miR-122 activators in hepatoma reporter cells, dose response, cell-based, Huh7 psiCHECK-miR122, Renilla luciferase, cherry-picked (AID 651956); assay type: functional;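 note: huh7 hepatoma cells stably carrying a psiCHECK-2 miR-122 sensor plasmid; renilla luciferase signal reporting endogenous miR-122 activity after 48 h compound exposure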
[13] = HEK293T cytotoxicity, dose response, cytotoxicity control for miR-122 modulator project, cell-based, inhibitor set, cherry-pick, set 2 (AID 720697); assay type: functional
[14] = molecular target: Long-chain-fatty-acid--AMP ligase FadD28 (Mycobacterium tuberculosis, UniProt P9WQ59); assay: Fluorescence polarization aasay to screen for inhibitors that compete for the binding of FadD28 to a bisubstrate Measured in Biochemical System Using Plate Reader - 2147-01_Inhibitor_Dose_CherryPick_Activity.; assay type: functional, Mycobacterium tuberculosis H37Rv
[15] = molecular target: Hepatocyte nuclear factor 4-alpha (Homo sapiens, UniProt P41235); assay type: functional, cell-based;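 note: biochemical luminescence-based dose-response counterscreen measuring inhibition of HNF4 dimerization, run alongside a screen for blockers of ABHD5–perilipin-5 interaction; split luciferase complementation of HNF4 fusion proteins in cell lysate measuring dimerization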
[16] = molecular target: Protein-tyrosine kinase 2-beta (Homo sapiens, UniProt Q14289);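 note: potency of inhibitors of PYK2 kinase phosphorylation of poly-GT substrate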
Beta-lactamase [17] = molecular target: T5, Beta-lactamase (Pseudomonas aeruginosa, UniProt Q79MP6); assay: IMP-1 metallo-beta-lactamase inhibitors, dose response, selectivity assay for VIM-2 inhibitor project, biochemical, epi-absorbance (AID 1920)
Beta-lactamase [18] = molecular target: T5, Beta-lactamase; assay: […] counterscreen for selective VIM-2 inhibitors: dose response biochemical high throughput screening assay to identify inhibitors of IMP-1 metallo-beta-lactamase.
Beta-lactamase [19] = molecular target: Beta-lactamase (Salmonella choleraesuis (strain SC-B67), UniProt Q5J463); assay: Epi-absorbance-based counterscreen for selective VIM-2 inhibitors: dose response biochemical high throughput screening assay to identify inhibitors of TEM-1 serine-beta-lactamase.
Sequence of Beta-lactamase (Salmonella choleraesuis (strain SC-B67), UniProt Q5J463) (Q5J463 whole entry): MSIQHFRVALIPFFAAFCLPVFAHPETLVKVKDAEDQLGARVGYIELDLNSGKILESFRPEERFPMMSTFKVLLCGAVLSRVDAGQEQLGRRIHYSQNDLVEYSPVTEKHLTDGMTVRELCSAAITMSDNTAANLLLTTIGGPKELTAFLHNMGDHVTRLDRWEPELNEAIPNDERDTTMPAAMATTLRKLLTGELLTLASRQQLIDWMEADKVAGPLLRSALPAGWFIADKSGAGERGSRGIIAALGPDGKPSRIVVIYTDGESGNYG

T4 sequence (Q9P0U3 whole entry, the tested form may be a part): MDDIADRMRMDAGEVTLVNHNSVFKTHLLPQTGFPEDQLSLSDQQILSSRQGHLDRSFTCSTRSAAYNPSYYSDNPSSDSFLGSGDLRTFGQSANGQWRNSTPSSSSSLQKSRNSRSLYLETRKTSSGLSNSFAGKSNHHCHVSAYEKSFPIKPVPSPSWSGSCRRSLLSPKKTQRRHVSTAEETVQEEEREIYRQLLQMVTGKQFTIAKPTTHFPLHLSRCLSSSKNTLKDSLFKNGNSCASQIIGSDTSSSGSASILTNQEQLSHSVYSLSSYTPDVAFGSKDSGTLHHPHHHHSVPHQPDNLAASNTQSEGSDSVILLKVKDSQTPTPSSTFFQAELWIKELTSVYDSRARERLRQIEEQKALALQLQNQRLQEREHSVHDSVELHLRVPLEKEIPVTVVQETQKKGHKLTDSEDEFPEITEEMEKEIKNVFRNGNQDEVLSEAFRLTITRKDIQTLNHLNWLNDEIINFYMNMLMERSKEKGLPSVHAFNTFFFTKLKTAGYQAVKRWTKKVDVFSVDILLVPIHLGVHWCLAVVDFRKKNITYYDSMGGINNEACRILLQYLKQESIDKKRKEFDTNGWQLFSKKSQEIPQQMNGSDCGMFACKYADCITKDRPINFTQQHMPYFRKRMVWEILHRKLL
T5 sequence (Q79MP6 whole entry): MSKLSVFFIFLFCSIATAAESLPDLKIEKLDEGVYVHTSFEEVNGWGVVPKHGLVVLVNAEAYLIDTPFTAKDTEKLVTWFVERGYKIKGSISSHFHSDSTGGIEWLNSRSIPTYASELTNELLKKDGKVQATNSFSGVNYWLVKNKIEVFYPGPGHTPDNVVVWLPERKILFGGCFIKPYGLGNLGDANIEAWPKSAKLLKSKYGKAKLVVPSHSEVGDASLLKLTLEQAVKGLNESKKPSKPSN
Sequence of COUP transcription factor 2 (P24468 whole entry): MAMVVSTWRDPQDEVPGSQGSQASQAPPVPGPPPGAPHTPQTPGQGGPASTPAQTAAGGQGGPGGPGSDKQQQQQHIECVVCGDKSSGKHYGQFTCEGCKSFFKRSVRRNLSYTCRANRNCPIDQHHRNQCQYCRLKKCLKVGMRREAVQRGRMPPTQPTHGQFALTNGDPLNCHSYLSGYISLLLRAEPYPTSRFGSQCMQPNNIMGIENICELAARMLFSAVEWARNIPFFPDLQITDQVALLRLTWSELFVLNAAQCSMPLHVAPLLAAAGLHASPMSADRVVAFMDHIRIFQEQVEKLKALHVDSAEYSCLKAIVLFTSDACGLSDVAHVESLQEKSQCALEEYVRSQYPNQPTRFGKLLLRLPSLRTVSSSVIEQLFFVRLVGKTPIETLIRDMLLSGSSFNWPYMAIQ
Sequence of Hepatocyte nuclear factor 4-alpha (P41235 whole entry, the tested form may be a part): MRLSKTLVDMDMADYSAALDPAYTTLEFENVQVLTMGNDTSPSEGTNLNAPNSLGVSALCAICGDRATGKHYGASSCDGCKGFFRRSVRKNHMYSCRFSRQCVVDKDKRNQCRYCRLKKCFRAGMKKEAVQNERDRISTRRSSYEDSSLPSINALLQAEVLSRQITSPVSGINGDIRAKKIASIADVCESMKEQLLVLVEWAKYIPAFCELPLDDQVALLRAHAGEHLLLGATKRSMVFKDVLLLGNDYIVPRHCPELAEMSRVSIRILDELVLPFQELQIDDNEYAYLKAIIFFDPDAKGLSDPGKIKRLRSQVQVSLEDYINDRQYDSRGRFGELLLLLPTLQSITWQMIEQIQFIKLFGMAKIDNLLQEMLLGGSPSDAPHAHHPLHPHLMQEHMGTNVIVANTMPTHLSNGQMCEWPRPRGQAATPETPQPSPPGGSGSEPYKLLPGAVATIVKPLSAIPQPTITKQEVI
Sequence of Beta-galactosidase (Q8VNN2 whole entry, the tested form may be a part): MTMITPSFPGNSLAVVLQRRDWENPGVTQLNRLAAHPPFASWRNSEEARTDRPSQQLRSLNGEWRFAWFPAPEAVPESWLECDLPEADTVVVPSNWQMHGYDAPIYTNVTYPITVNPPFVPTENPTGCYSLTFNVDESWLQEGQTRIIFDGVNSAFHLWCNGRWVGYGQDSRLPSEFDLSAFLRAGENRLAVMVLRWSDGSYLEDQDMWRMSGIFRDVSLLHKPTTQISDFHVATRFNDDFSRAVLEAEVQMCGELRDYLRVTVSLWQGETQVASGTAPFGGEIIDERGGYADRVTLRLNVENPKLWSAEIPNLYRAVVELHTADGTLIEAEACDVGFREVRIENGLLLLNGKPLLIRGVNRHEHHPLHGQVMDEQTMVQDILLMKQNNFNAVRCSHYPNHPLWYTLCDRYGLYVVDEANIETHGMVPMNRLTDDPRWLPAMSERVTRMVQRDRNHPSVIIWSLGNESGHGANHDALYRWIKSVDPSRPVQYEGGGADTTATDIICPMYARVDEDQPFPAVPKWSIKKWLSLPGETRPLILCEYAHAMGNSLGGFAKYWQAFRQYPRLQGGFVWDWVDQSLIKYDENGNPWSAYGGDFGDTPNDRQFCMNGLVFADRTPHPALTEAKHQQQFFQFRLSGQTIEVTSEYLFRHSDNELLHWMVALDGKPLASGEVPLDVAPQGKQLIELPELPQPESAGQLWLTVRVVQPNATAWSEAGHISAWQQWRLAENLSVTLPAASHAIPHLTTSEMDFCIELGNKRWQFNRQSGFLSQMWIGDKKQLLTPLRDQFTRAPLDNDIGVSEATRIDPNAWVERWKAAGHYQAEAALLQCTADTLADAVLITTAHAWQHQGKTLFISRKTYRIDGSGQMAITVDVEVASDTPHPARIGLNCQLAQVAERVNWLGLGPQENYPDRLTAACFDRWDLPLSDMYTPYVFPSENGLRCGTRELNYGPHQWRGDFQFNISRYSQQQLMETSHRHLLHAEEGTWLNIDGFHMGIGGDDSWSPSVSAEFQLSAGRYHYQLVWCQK
Sequence of G-protein coupled receptor 55 (Q9Y2T6 whole entry): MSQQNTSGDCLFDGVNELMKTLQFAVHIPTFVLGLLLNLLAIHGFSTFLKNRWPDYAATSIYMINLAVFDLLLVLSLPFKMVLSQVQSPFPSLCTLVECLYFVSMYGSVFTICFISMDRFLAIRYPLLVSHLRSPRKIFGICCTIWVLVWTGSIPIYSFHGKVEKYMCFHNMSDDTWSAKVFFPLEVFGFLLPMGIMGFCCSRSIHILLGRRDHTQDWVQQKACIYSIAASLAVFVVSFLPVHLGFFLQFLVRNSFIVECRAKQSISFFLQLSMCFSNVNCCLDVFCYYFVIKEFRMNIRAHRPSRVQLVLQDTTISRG
Sequence of Long-chain-fatty-acid--AMP ligase FadD28 (P9WQ59 whole entry, the tested form may be a part): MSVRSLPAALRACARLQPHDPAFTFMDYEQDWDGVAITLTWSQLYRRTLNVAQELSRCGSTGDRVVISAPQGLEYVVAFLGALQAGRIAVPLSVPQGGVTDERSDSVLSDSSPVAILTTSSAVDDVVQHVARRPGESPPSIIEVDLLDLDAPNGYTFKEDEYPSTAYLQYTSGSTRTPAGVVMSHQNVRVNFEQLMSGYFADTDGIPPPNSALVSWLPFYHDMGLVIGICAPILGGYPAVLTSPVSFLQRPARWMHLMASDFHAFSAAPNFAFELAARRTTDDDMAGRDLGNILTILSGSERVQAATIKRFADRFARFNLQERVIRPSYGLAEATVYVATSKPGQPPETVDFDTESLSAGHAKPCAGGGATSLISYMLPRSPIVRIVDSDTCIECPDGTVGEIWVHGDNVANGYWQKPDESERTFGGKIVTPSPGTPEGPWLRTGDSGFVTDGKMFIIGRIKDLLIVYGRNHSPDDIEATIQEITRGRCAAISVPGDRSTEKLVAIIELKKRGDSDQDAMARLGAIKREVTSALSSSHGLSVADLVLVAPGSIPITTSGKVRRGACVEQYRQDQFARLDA
Sequence of Protein-tyrosine kinase 2-beta (Q14289 whole entry): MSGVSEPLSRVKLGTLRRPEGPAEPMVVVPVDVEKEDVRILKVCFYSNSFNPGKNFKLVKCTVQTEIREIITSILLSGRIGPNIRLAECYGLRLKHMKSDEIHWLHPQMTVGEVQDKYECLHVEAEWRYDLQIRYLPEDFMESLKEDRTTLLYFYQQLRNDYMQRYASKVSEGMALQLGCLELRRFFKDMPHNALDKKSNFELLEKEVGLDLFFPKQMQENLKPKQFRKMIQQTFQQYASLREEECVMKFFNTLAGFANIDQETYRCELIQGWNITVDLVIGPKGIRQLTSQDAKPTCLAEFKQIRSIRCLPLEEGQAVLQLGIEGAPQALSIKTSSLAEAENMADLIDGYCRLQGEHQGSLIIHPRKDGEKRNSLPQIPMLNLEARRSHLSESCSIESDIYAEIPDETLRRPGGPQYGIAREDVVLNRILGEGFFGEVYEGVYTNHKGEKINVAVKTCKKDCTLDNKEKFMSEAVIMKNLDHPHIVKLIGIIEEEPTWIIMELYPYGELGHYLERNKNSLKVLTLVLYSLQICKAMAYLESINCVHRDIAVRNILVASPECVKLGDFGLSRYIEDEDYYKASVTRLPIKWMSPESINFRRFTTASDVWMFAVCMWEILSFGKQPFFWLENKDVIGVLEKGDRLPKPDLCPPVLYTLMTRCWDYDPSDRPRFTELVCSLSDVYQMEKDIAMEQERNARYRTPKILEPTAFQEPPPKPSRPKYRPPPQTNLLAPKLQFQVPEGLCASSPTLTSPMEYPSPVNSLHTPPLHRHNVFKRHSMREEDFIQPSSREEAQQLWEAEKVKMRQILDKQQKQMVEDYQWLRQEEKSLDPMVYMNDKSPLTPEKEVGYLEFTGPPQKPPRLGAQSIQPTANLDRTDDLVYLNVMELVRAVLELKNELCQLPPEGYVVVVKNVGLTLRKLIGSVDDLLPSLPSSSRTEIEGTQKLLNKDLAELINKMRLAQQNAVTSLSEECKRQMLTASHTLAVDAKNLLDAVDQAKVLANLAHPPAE

## CCCN1C(=O)/C(=C\C=C2\N(CC)c3ccccc3C2(C)C)SC1=S
[1]
  IC50: 0.824 µM (active)
[2]
  AC50: > 52 µM (inactive)

## O=C(c1ccc(-n2cccn2)cc1)N1CCN(c2ncccc2C(F)(F)F)CC1
Beta-galactosidase
  IC50: > 80 µM (inactive)

## Cc1ccc2[nH]c3c(c2c1)CCCC3NCCO (stereo not drawn)
[3]
  AC50: 135 µM (active)
Caspase-6
  AC50: 22.2 µM (active)

## COc1ccc(CCNc2ncnc3c2oc2ccccc23)cc1OC
[4]
  AC50: 3.79 µM (active)
[5]
  IC50: 5.03 µM (active)
INS1
  AC50: 1.78 µM (active)
Protein Wnt-3a
  IC50: 1.07 µM (active)
[6]
  AC50: 0.524 µM (active)
[7]
  AC50: 1.89 µM (active)

## Cc1cccc(-c2c3c(=O)n(C)c(=O)n(C)c3c3cccnn23)c1
[8]
  EC50: 87.6 µM (active)
[9]
  EC50: 83.8 µM (active)
[10]
  IC50: 27 µM (inactive)
[11]
  IC50: 11.3 µM (active)

## C[C@@H]1CN([C@@H](C)CO)S(=O)(=O)c2ccc(C#Cc3ccncc3)cc2O[C@@H]1CN(C)C(=O)Nc1ccc2c(c1)OCO2
[12]
  AC50: 6.9 µM (active)
[13]
  AC50: 10.7 µM (active)

## O=C(N/N=C/c1c[nH]c2ccccc12)c1cc(Br)ccc1O
[14]
  AC50: 7.18 µM (active)

## COc1ccc(C(C(=O)Nc2c(C)cccc2C)n2c(=O)c(-c3ccco3)nc3ccccc32)cc1 (stereo not drawn)
[15]
  IC50: 2.42 µM (active)

## O=P(O)(O)c1ccccc1OCc1ccccc1
[16]
  IC50: 2.21 µM (active)
Beta-lactamase [17]
  IC50: > 59.6 µM (inactive)
Beta-lactamase [18]
  IC50: > 59.6 µM (inactive)
Beta-lactamase [19]
  IC50: > 59.6 µM (inactive)
